Test results as given in PMC7723321 (Nature chemical biology, 2020).

Legend:
SIVmac251.30 Env = assay type: cell-based, SIV
[1] = test system: Envs from HIV-1 primary isolates of clade A, B, C and AG; assay type: cell-based
HIV-1 Env pseudoviruses = assay type: cell-based
2F5 Fab = assay type: binding
HIV-1 92UG037.8 Env = HIV-1 92UG037.8 Env (Human immunodeficiency virus type 1, UniProt Q70200); assay type: cell-based

| SMILES | inhibition of cell-cell fusion mediated by SIV Env, high expression level (SIVmac251.30 Env) | inhibition of cell-cell fusion mediated by SIV Env, low expression level (SIVmac251.30 Env) | cytotoxicity by an assay measuring ATP concentration (293T cells) | inhibition of cell-cell fusion mediated by Envs of multiple primary HIV-1 isolates [1] | inhibition of HIV-1 infectivity versus MuLV negative control (HIV-1 Env pseudoviruses) | binding to 2F5 Fab by SPR (in words) (2F5 Fab) | cytotoxicity in TZM.bl cells (TZM.bl cells) | inhibition activity/potency in the HIV-1 Env cell-cell fusion assay (in words) (HIV-1 92UG037.8 Env) |
| --- | --- | --- | --- | --- | --- | --- | --- | --- |
| Cc1cc(N)c2ccccc2[n+]1CCCCCCCCCC[n+]1c(C)cc(N)c2ccccc21 [dequalinium, quinolinium,1,1’-(1,10-decanediyl)-bis(4-amino-2-methyldiiodide)] | resistant | inhibited | minimal level of cytotoxicity | specifically inhibited | much greater inhibition | no binding | more cytotoxicity than in the cell-cell fusion assay | – |
| Cc1cc(N)c2ccccc2n1 [4-aminoquinaldine] | – | – | – | – | – | – | – | no activity |
